Source: patent US10973861B2, “Compositions and methods” (priority 2013, dated 2021)

Test system: C. difficile
Test: Mouse model of C. difficile infection, bacterial compositions given by oral gavage on day −1 (Example 1)
Assay type: in vivo, mice
Settings: positive control, oral gavage on days −1 to 4

In the case of `CN[C@H](CC(C)C)C(=O)N[C@H]1C(=O)N[C@@H](CC(N)=O)C(=O)N[C@H]2C(=O)N[C@H]3C(=O)N[C@H](C(=O)N[C@H](C(=O)O)c4cc(O)cc(O)c4-c4cc3ccc4O)[C@H](O)c3ccc(c(Cl)c3)Oc3cc2cc(c3O[C@@H]2O[C@H](CO)[C@@H](O)[C@H](O)[C@H]2O[C@H]2C[C@](C)(N)[C@H](O)[C@H](C)O2)Oc2ccc(cc2Cl)[C@H]1O` [Vancomycin], the “weight loss, clinical signs of disease, and C. difficile shedding (in words)” value is reported as “protects against these outcomes”.
